Test results taken from patent US20060148683A1, “Detection and treatment of intravascular lesions” (priority 2001, published 2006).
Positions of bridges follow the written chain, without caps; N, C: chain ends. Non-standard residues stand in square brackets, D forms with d. Residues, ends and D or L forms follow the SMILES beside them. ξ: configuration not given here. *: point of attachment. X1 = CN(C)c1ccc2c(-c3cc(C(=O)*)ccc3C(=O)[O-])c3ccc(=[N+](C)C)cc-3oc2c1; Ile(3ξ) = CCC(C)[C@H](N)C(=O)O; Ahx = NCCCCCC(=O)O

Assays:
Type in all cases: binding
DD(E) fragment of fibrin = target: T1, DD(E) fragment of fibrin (Homo sapiens, UniProt P02671+P02675+P02679, DEL433-453); assay: Dissociation constant (Kd) of optical agent for DD(E) fragment of fibrin; conditions: 24° C.; read-out: Kd (μM) vs. DD(E) @ 24° C.
T1 construct: complex of the crosslinked D domains of adjacent fibrin monomers with the central E domain of fibrin
Text: Optical agents of the invention include an OD and a FBM covalently bound to each other, either directly or via a linker (OD-L-FBM). The FBM can be a small molecule or a peptide. As used herein, the term “peptide” refers to a chain of amino acids that is about 2 to about 75 amino acids in length (e.g., 3 to 50 amino acids). Affinity of a peptide for fibrin can be expressed in terms of its dissociation constant (Kd), which is the equilibrium constant for the dissociation reaction of the peptide from the DD(E) fragment of fibrin. The term “DD(E) fragment of fibrin” refers to a fibrin subcomponent generated by proteolytic degradation of fibrin with plasmin or trypsin. The DD(E) fragment is a complex of the crosslinked D domains of adjacent fibrin monomers with the central E domain of fibrin (See, for example, Spraggon et al., Nature 389:455462 (1997)). Since DD(E) is a product resulting from the proteolysis of fibrin, one of skill in the art will understand that there may be some slight heterogeneity in its composition. The DD(E) fragment can be biotinylated and immobilized via avidin to a solid substrate (e.g., a multi-well plate). Peptides can be incubated with the immobilized DD(E) fragment in a suitable buffer and binding detected using known methodology. Methods for determining the dissociation constant of the peptide for DD(E) are set forth in WO 01/09188.
As a result of the FBM having affinity for fibrin, the optical agent also has affinity for fibrin. The term “affinity” refers to the capacity of the optical agent to be taken up by, retained by, or bound to the fibrin in the lesion. The affinity of an optical agent can be expressed in terms of its Kd, which is the equilibrium constant for the dissociation reaction of the optical agent from fibrin, and determined as discussed above for the peptide. The dissociation constant of the optical agent for DD(E) can have a value less than about 10 μM (e.g., 0.1 μM to 10 μM). In one embodiment, the dissociation constant value is less than about 5 μM. In another embodiment, the dissociation constant value is less than about 1 μM. The dissociation constant also may have a value less than about 0.3 μM (e.g., 0.2 μM).
In the methods of the present invention, the optical agent forms a fibrin-optical agent complex at the site of the lesion. The ability of the optical agent to form a fibrin-optical agent complex may be measured by examining the optical agent's dissociation constant (Kd) for a DD(E) fragment of fibrin as discussed above.

fibrin = target: T2, fibrin (Homo sapiens, UniProt P02671+P02675+P02679); assay: Confocal fluorescence imaging of fibrin-optical agent complex on lesion formed by cross-linking fibrinogen with thrombin; conditions: 0.6 μM optical agent, 0.1 mg/mL fibrinogen, confocal fluorescence imaging ex 555 nm, em 575 nm
T2 sequence (P02671 36-629 limits assumed): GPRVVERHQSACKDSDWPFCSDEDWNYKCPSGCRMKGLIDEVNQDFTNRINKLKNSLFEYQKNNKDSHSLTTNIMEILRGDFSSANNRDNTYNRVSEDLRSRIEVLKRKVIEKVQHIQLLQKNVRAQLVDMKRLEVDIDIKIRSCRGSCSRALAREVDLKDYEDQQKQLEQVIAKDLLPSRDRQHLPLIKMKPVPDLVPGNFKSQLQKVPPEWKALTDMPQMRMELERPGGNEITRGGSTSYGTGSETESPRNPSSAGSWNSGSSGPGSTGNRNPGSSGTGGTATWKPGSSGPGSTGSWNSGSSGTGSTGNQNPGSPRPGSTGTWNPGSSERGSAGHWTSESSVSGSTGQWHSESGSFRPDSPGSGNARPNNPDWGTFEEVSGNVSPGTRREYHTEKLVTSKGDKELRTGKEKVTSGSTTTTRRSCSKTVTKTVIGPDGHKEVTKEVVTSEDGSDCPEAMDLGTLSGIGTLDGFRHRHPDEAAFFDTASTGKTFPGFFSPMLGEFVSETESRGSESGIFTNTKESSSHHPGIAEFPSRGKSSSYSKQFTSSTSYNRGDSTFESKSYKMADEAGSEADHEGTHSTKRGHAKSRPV
T2 sequence (P02675 45-491 limits assumed): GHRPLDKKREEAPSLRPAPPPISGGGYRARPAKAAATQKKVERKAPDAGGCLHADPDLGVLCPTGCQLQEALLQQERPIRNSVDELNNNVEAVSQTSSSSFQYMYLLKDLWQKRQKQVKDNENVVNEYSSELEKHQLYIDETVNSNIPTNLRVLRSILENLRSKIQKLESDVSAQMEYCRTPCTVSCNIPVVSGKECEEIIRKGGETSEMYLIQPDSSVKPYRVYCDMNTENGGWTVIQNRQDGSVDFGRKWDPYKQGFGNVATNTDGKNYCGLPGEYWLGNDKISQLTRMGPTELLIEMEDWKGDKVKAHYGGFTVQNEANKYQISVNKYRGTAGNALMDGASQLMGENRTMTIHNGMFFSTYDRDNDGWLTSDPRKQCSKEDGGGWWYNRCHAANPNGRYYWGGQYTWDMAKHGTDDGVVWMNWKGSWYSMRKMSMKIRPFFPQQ
T2 sequence (P02679 27-437 isoform P02679-2 limits assumed): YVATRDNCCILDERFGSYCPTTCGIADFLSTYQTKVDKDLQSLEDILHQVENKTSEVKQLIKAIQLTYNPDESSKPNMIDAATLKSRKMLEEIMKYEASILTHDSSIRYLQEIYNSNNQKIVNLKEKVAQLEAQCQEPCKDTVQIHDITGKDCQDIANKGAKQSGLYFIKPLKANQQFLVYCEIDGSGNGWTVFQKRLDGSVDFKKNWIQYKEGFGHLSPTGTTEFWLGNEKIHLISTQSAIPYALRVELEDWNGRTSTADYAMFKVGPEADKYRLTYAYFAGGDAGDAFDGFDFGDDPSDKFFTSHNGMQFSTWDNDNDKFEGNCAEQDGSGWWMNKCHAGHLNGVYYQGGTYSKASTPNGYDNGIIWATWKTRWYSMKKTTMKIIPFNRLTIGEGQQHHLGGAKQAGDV
Procedure: (§1) Site 2/fibrin: 0.1 mg/mL of fibrinogen was mixed with 0.6 μM of an optical agent (Structure XI, see FIG. 3) comprising tetramethylrhodamine as the optical dye. The mixture was coated (approximately 4-20 μL) onto a glass slide and cross-linking of fibrinogen was initiated with 1.3 μg/L of thrombin. Clotting occurred in approximately 15 sec. The slide was imaged using confocal fluorescence imaging (ex 555 nm, em 575 nm).
as §1, with “1/fibrin:” for “2/fibrin:”, “X)” for “XI, see FIG. 3)”, “about 15-20 seconds.” for “approximately 15 sec.”

[1] = target: T3, fibrin on a lesion (plasma clot) (Homo sapiens, UniProt P02671+P02675+P02679); assay: Confocal fluorescence imaging of fibrin-optical agent complex on plasma clot formed by clotting human plasma with thrombin; conditions: 0.6 μM optical agent, platelet rich human plasma, confocal fluorescence imaging ex 555 nm, em 575 nm
T3 construct: from tissue; host or cells: platelet rich human plasma
T3 sequence (P02671 36-629 limits assumed): T2 sequence (P02671 36-629 limits assumed)
T3 sequence (P02675 45-491 limits assumed): T2 sequence (P02675 45-491 limits assumed)
T3 sequence (P02679 27-437 isoform P02679-2 limits assumed): T2 sequence (P02679 27-437 isoform P02679-2 limits assumed)
Procedure: Site 2/plasma clot: human plasma (platelet rich human plasma) was mixed with 0.6 μM of an optical agent (Structure XI, see FIG. 3) comprising tetramethylrhodamine as the optical dye. The mixture was coated onto a glass slide (approximately 4-20 μL) and clotting of plasma was initiated with 1.3 μg/L of thrombin. Clotting occurred within 15 sec. The slide was imaged using confocal fluorescence imaging (ex 555 nm, em 575 nm).

## CCC(C)[C@H](NC(=O)[C@H](Cc1c[nH]c2ccccc12)NC(=O)[C@@H]1CSSC[C@H](NC(=O)[C@H](CCC(=O)O)NC(=O)[C@H](Cc2c[nH]c3ccccc23)NC(=O)[C@H](CCC(N)=O)NC(=O)CCCCCNC(=O)c2ccc(C(=O)[O-])c(-c3c4ccc(=[N+](C)C)cc-4oc4cc(N(C)C)ccc34)c2)C(=O)N2CCC[C@H]2C(=O)N[C@@H](Cc2ccc(O)cc2)C(=O)NCC(=O)N[C@@H](CC(C)C)C(=O)N1)C(=O)N[C@@H](CCC(N)=O)C(N)=O (stereo partly drawn) [Structure XI] ({X1-Ahx}-QWECPYGLCW[Ile(3ξ)]Q-NH2; disulfide 4-9)
DD(E) fragment of fibrin
  Kd: 0.09 µM
fibrin
  Detection of fibrin based on signal of fibrin-optical agent complexes: Fibrin was detected
[1]
  Detection of fibrin based on signal of fibrin-optical agent complexes: Fibrin was detected
